According to publication PMC11917140, “Mining the UniProtKB/Swiss‐Prot database for antimicrobial peptides” (Protein Science : A Publication of the Protein Society, 2025):
Read-outs that look alike come from different tables or passages of the source. Residues, ends and D or L forms follow the SMILES beside them. No end group written: not given here.

Columns and labels:
[1] = tested on: Escherichia coli ATCC 25922; assay type: cell-based
Protocol: (§1) To measure the antimicrobial activity of our selected putative AMPs in vitro, broth microdilution assays were conducted to determine the minimum inhibitory and minimum bactericidal concentrations (MICs and MBCs, respectively), as outlined by the Clinical and Laboratory Standards Institute [CLSI] ([2015]). The adaptations for testing cationic AMPs, as described previously (Wiegand et al., [2008]), were incorporated. The selected peptides were tested against laboratory isolates of E. coli 25922 and S. aureus 29213, which were purchased from the American Type Culture Collection (ATCC; Manassas, VA, USA). Bacteria from frozen stocks were streaked onto nonselective Columbia blood agar with 5% sheep blood (Oxoid) and incubated for 18–24 h at 37°C. To ensure the uniform colony health before the assay, 2–4 colonies were streaked onto a new agar plate and incubated for another 18–24 h at 37°C on the next day. To create a standardized bacterial inoculum, isolated colonies were suspended in Mueller‐Hinton Broth (MHB; Sigma‐Aldrich, St. Louis, MO, USA). The suspension was adjusted to an optical density of 0.08–0.1 at 600 nm, which corresponds to a 0.5 McFarland standard of approximately 1–2 × 10^8 colony‐forming units (CFU)/mL. The inoculum was then diluted 1:250, resulting in a final concentration of 5 ± 3 × 10^5 CFU/mL. The target bacterial density was confirmed by measuring the total viability counts from the final tested inoculum.
(§2) The selected putative AMPs were purchased from and synthesized by GenScript (Piscataway, NJ, USA) in lyophilized format. The peptides were stored at −20°C and were suspended in sterile ultrapure water prior to testing. A two‐fold serial dilution of 1280 to 2.5 μg/mL was prepared in sterile 96‐well polypropylene microtiter plates (Greiner Bio‐One #650261, Kremsmünster, Austria). Then, 100 μL of the standardized bacterial inoculum was added to each well, resulting in a final AMP testing range of 128 to 0.25 μg/mL. The MIC values were determined as the lowest peptide concentration in which no visible bacterial growth was observed after a 20–24 h incubation at 37°C. To determine the MBC values, well contents of the MIC and the two adjacent wells containing the two‐ and four‐fold higher peptide concentrations were plated onto nonselective nutrient agar. The concentration in which 99.9% of the inoculum was killed after an incubation for 24 h at 37°C was reported as the MBC.
(§3) In our tests, we used Ranatuerin‐4—a known AMP from the American bullfrog (Goraya et al., [1998]), and an in‐house peptide [TKPKG]3 (OT15) as the positive and negative control peptides, respectively. We note that OT15 was truncated and derived from a negative control peptide [TKPKG]4 (OT20), not antimicrobial but sharing similar characteristics to AMPs, used in previous studies (Horváti et al., [2017]).

[2] = tested on: Staphylococcus aureus ATCC 29213; assay type: cell-based
Protocol: as §1, §2, §3

[3] = broth microdilution (CLSI, adapted for cationic AMPs), MHB, 5 ± 3 × 10^5 CFU/mL, 20–24 h at 37°C, tested 0.25–128 μg/mL, range from three independent experiments in duplicate, one maximum and one minimum data point dropped
[4] = concentration killing 99.9% of inoculum, plated on nutrient agar, 24 h at 37°C, range from three independent experiments in duplicate, one maximum and one minimum data point dropped

| Molecule | MIC, E. coli ATCC 25922 ([1]; ATCC 25922) [µg/mL] | MBC, E. coli ATCC 25922 ([1]; ATCC 25922, 24 h) [µg/mL] | MIC, S. aureus ATCC 29213 ([2]; ATCC 29213) [µg/mL] | MBC, S. aureus ATCC 29213 ([2]; ATCC 29213, 24 h) [µg/mL] | MIC, E. coli ATCC 25922 [1, 3] [µg/mL] | MIC, S. aureus ATCC 29213 [2, 3] [µg/mL] | MBC, S. aureus ATCC 29213 [2, 4] [µg/mL] | MBC, E. coli ATCC 25922 [1, 4] [µg/mL] |
| --- | --- | --- | --- | --- | --- | --- | --- | --- |
| RVKRFWPLVPVAINTVAAGINLYKAIRRK [Chicken CATH-3, reference compound] | 2 to 4 | 2 to 4 | 2 | 2 to 4 |  |  |  |  |
| SYWWWGFHKNVIDRREAFYADLAEKKKAEN [CaGl1] | > 128 | > 128 | > 128 | > 128 |  |  |  |  |
| WLLVLQRGHRLASIKHVCQLSERKR [DaRe1] | 32 to 64 | 32 to 64 | > 128 | > 128 |  |  |  |  |
| VWEFFEAGAGLRASNASKKIYGVAKRFRR [DiVi1] | > 128 | > 128 | > 128 | > 128 |  |  |  |  |
| ARLDVAAEFRKKWNKWALSRGKR [SuSc1] |  |  |  |  | 128 | > 128 | > 128 |  |
| CC[C@H](C)[C@H](NC(=O)[C@H](CC(C)C)NC(=O)[C@H](CC(=O)O)NC(=O)[C@H](CCCNC(=N)N)NC(=O)[C@H](CO)NC(=O)[C@H](CS)NC(=O)[C@H](Cc1c[nH]cn1)NC(=O)[C@H](Cc1c[nH]cn1)NC(=O)[C@H](Cc1c[nH]cn1)NC(=O)[C@H](Cc1ccc(O)cc1)NC(=O)[C@H](CC(C)C)NC(=O)[C@H](Cc1ccccc1)NC(=O)[C@H](CC(N)=O)NC(=O)[C@H](CC(C)C)NC(=O)[C@H](CC(C)C)NC(=O)[C@H](Cc1ccc(O)cc1)NC(=O)[C@H](CO)NC(=O)[C@H](CS)NC(=O)[C@@H](NC(=O)[C@H](Cc1c[nH]c2ccccc12)NC(=O)[C@H](Cc1ccccc1)NC(=O)[C@@H](NC(=O)[C@H](Cc1c[nH]c2ccccc12)NC(=O)[C@H](CC(N)=O)NC(=O)[C@H](CCCCN)NC(=O)[C@H](C)NC(=O)[C@H](Cc1c[nH]c2ccccc12)NC(=O)[C@H](CC(=O)O)NC(=O)[C@H](Cc1c[nH]c2ccccc12)NC(=O)[C@H](C)N)C(C)C)[C@@H](C)O)C(=O)N[C@@H](CCCNC(=N)N)C(=O)N[C@@H](CCCNC(=N)N)C(=O)O [ScPo1] (H-AWDWAKNWVFWTCSYLLNFLYHHHCSRDLIRR-OH; N-terminus and C-terminus assumed) | > 128 | > 128 | > 128 | > 128 |  |  |  |  |
| GLQKLINKIKSQMSRFSTKTNKICGP [HoSa1] | 16 | 16 to 32 | 128 |  |  |  |  |  |
| FMRFGKRFMRFGRFGKSAEVENNIQIAAKQS [LySt2] | > 128 | > 128 | > 128 | > 128 |  |  |  |  |
| QVWKRR [HoSa8, putative AMP mined from UniProt Q9BXP8, Homo sapiens] |  |  |  |  | > 128 | > 128 | > 128 | > 128 |
| DLWFGLKTEGELAFVKRTIFDVIYKSAKRKR [ArTh10] | > 128 | > 128 | > 128 | > 128 |  |  |  |  |
| RIRGHTIKG [DrMe6, putative AMP mined from UniProt O46201, Drosophila melanogaster] |  |  |  |  | > 128 | > 128 | > 128 | > 128 |
| VMRSAGSRSSKR [OrSa6, putative AMP mined from UniProt Q5VRI5, Oryza sativa subsp. japonica] |  |  |  |  | > 128 | > 128 | > 128 | > 128 |
| WIIQCWWRQVLEKLLAKRRR [HoSa4] |  |  | 64 to 128 |  | 32 | 64 to 128 |  | 32 |
| YVSPVAIVKGLNIPL [Ovipin, reference compound] | > 128 |  | > 128 |  |  |  |  |  |
| GVLKKVIRHKR [HoSa6, putative AMP mined from UniProt P24821, Q29116; Homo sapiens, Sus scrofa] |  |  |  |  | > 128 | > 128 | > 128 | > 128 |
| QFFLPMILRLYVSRLFISKL [CaGl2, putative AMP mined from UniProt P05040, Candida glabrata] |  |  |  |  | > 128 | > 128 | > 128 | > 128 |
| GRGRPKGRGRGRPRGRPRGSKR [GoGo1] |  |  |  |  | 64 | > 128 | > 128 |  |
| CSCC[C@H](NC(=O)[C@H](C)NC(=O)[C@H](CCC(=O)O)NC(=O)[C@H](Cc1c[nH]c2ccccc12)NC(=O)[C@H](CCCNC(=N)N)NC(=O)[C@@H](N)[C@@H](C)O)C(=O)N[C@@H](CCCCN)C(=O)N[C@@H](C)C(=O)N[C@@H](CCCCN)C(=O)N[C@@H](C)C(=O)N[C@H](C(=O)N[C@@H](CCC(=O)O)C(=O)N[C@@H](CC(C)C)C(=O)N[C@@H](CCCNC(=N)N)C(=O)N[C@H](C(=O)N[C@@H](CS)C(=O)N[C@@H](CS)C(=O)N[C@@H](C)C(=O)N[C@@H](CCCNC(=N)N)C(=O)N[C@@H](CCCNC(=N)N)C(=O)N[C@@H](CCCCN)C(=O)N[C@@H](CCCNC(=N)N)C(=O)O)C(C)C)[C@@H](C)O [HoSa2] (H-TRWEAMKAKATELRVCCARRKR-OH; N-terminus and C-terminus assumed) | > 128 | > 128 | > 128 | > 128 |  |  |  |  |
| CSCC[C@H](NC(=O)CNC(=O)[C@H](CO)NC(=O)[C@H](CCCNC(=N)N)NC(=O)[C@@H](NC(=O)[C@H](CO)NC(=O)[C@H](Cc1ccccc1)NC(=O)CNC(=O)[C@H](Cc1ccccc1)NC(=O)[C@@H](NC(=O)[C@H](CO)NC(=O)[C@H](CCCNC(=N)N)NC(=O)[C@H](CCCNC(=N)N)NC(=O)[C@@H](NC(=O)[C@H](C)NC(=O)[C@H](CS)NC(=O)[C@H](Cc1ccccc1)NC(=O)[C@H](CCC(N)=O)NC(=O)[C@H](C)NC(=O)[C@H](CCCNC(=N)N)NC(=O)CNC(=O)[C@H](C)NC(=O)[C@H](Cc1ccc(O)cc1)NC(=O)[C@H](C)NC(=O)[C@H](Cc1c[nH]c2ccccc12)NC(=O)[C@H](CCC(N)=O)NC(=O)[C@H](CO)NC(=O)[C@H](Cc1c[nH]c2ccccc12)NC(=O)[C@@H](N)CCCNC(=N)N)C(C)C)C(C)C)C(C)C)C(=O)N[C@H](C(=O)N[C@@H](CS)C(=O)N[C@@H](CCCNC(=N)N)C(=O)N1CCC[C@H]1C(=O)N[C@@H](CCCNC(=N)N)C(=O)N[C@@H](CCCNC(=N)N)C(=O)O)C(C)C [MuMu1] (H-RWSQWAYAGRAQFCAVRRSVFGFSVRSGMVCRPRR-OH; N-terminus and C-terminus assumed) | ≥ 128 |  | > 128 | > 128 |  |  |  |  |
| FLEKPPGPLGARPLGGK [MuMu4, putative AMP mined from UniProt Q9Z0L3, Mus musculus] |  |  |  |  | > 128 | > 128 | > 128 | > 128 |
| GLIKRIIRQKR [GaGa2] | 128 |  | > 128 |  |  |  |  |  |
| VLKKSEIRIDFISRTILHI [MoIn1, putative AMP mined from UniProt Q09WW0, Morus indica] |  |  |  |  |  | > 128 | > 128 |  |
